Measurements published in patent publication US20060128792A1, “Deguelin as a chemopreventive agent for lung cancer” (priority 2002, published 2006).
Values joined by “and” are separate entries in the source; they are usually repeats but may differ in a detail not shown here. Equal entries are not always repeated. Where two headings read alike, the source gives them in different places.

Key:
[1] = system: premalignant (1799, 1198) and malignant (1170) HBE cell lines; test: MTT assay, growth of premalignant and malignant HBE cell lines; assay type: cell-based; settings: premalignant and malignant HBE cells; unpublished data
Source text: Cells and Cell Cultures. […] Tumors developed 6 months later. […] (Klein-Szanto et al., 1992).

NHBE = test: MTT assay, growth inhibition / viability of normal HBE cells
Description: Cells and Cell Cultures. […] Normal HBE (NHBE) cells were purchased from Clontech (Palo Alto, Calif.). […] Cells were grown on tissue culture plasticware (Falcon; Bector, Dickinson, Bedford, Mass.) at 37° C. in a humidified atmosphere with 5% C02. For the analyses of growth inhibition, cell cycle, and induction of apoptosis by deguelin, NHBE cells, HBE cell lines, and squamous HBE cells were cultured in KSFM (Life Technologies) containing 2 μg/ml of EGF and bovine pitutary extract.
Cell Treatment with Deguelin and Determination of Growth Inhibition. To measure the effects of deguelin on cell proliferation, NHBE, 1799 cells, 1198 cells, and 1170 cells were transferred onto 96-well plates at densities ranging from 2×10^3 to 4×10^3 cells/well. After 1 day, the cells were changed to the fresh medium containing various concentrations of deguelin dissolved in DMSO (final concentration, 0.1%). Control cultures received 0.1% dimethyl sulfoxide (DMSO) as did the deguelin-treated cultures. […] After 1 day of infection, cells were treated with 10^−7 M or 10^−6 M of deguelin, or 0.1% DMSO as a control, and then incubated for 2 days. […] Six replicate wells were used for each analysis.

[2] = system: genes controlled by the TPA response element (TRE); settings: cited from earlier work
[3] = system: ovarian, breast and lung cancers; settings: cited from earlier work
H322 = test: MTT assay, growth inhibition by deguelin or deguelin derivatives; assay type: cell-based; settings: 3 days
H1299 = test: as above; assay type: cell-based; settings: 3 days
A549 = test: as above; assay type: cell-based; settings: 3 days
H460 = test: as above; assay type: cell-based; settings: 3 days
NSCLC cells = test: MTT assay, growth inhibition of NSCLC cells by deguelin and deguelin derivatives (Table 2, FIG. 7); assay type: cell-based; settings: 0.01-1 μM, 3 days
H358 = test: MTT assay, growth inhibition by deguelin or deguelin derivatives; assay type: cell-based; settings: 3 days
H596 = test: as above; assay type: cell-based; settings: 3 days

Molecule: O=c1cc(N2CCOCC2)oc2c(-c3ccccc3)cccc12 [LY294002, reference compound]
- concentration required to induce detectable cell growth inhibition [1]: more than 10 μM
- cytotoxicity on NHBE cells (NHBE): significant cytotoxicity

Molecule: N#CC(=C(N)Sc1ccccc1N)C(C#N)=C(N)Sc1ccccc1N [U0126, 1,4diamino-2,3-dicyano-1,4 bis[2-aminophenylthio]butadiene]
- concentration inhibiting PMA-induction of TRE-controlled genes [2]: 1 to 2 µM

Molecule: CC(=O)O[C@H]1C(=O)[C@@]2(C)[C@H]([C@H](OC(=O)c3ccccc3)[C@]3(O)C[C@H](OC(=O)[C@H](O)[C@@H](NC(=O)c4ccccc4)c4ccccc4)C(C)=C1C3(C)C)[C@]1(OC(C)=O)CO[C@@H]1C[C@@H]2O [taxol, Paclitaxel]
- response rate ([3]; advanced drug refractory ovarian cancer): 19-36%
- response rate ([3]; previously treated metastatic breast cancer): 27-62%
- response rate ([3]; various lung cancers): 21-37%

Molecule: methoxyrot-2′-enoic acid
- % control (H322; H322, 0.01 μM): 97%
- MTT assay reading, Average (H322; H322, 0.01 μM): 0.8434
- MTT assay reading, individual replicate (H322; H322, 0.01 μM): 0.729 and 0.806 and 0.748 and 0.791 and 0.898 and 1.011 and 0.921
- % control (H322; H322, 0.1 μM): 55%
- MTT assay reading, Average (H322; H322, 0.1 μM): 0.4803
- MTT assay reading, individual replicate (H322; H322, 0.1 μM): 0.322 and 0.412 and 0.406 and 0.52 and 0.585 and 0.58 and 0.537
- % control (H322; H322, 0.5 μM): 43%
- MTT assay reading, Average (H322; H322, 0.5 μM): 0.3787
- MTT assay reading, individual replicate (H322; H322, 0.5 μM): 0.32 and 0.314 and 0.388 and 0.393 and 0.466 and 0.443 and 0.327
- % control (H322; H322, 1 μM): 40%
- MTT assay reading, Average (H322; H322, 1 μM): 0.3461
- MTT assay reading, individual replicate (H322; H322, 1 μM): 0.271 and 0.348 and 0.409 and 0.352 and 0.361 and 0.324 and 0.358
- % control (H1299; H1299, 0.01 μM): 0.48%
- MTT assay reading, Average (H1299; H1299, 0.01 μM): 0.7507
- MTT assay reading, individual replicate (H1299; H1299, 0.01 μM): 0.707 and 0.725 and 0.796 and 0.793 and 0.86 and 0.656 and 0.718
- % control (H1299; H1299, 0.1 μM): 0.29%
- MTT assay reading, Average (H1299; H1299, 0.1 μM): 0.4579
- MTT assay reading, individual replicate (H1299; H1299, 0.1 μM): 0.401 and 0.474 and 0.434 and 0.387 and 0.526 and 0.465 and 0.518
- % control (H1299; H1299, 0.5 μM): 0.25%
- MTT assay reading, Average (H1299; H1299, 0.5 μM): 0.3934
- MTT assay reading, individual replicate (H1299; H1299, 0.5 μM): 0.425 and 0.405 and 0.342 and 0.497 and 0.278 and 0.503 and 0.304
- % control (H1299; H1299, 1 μM): 0.22%
- MTT assay reading, Average (H1299; H1299, 1 μM): 0.3396
- MTT assay reading, individual replicate (H1299; H1299, 1 μM): 0.29 and 0.384 and 0.395 and 0.301 and 0.289 and 0.346 and 0.372
- MTT assay reading, Average (A549; A549, 0.01 μM): 0.2983
- MTT assay reading, individual replicate (A549; A549, 0.01 μM): 0.286 and 0.219 and 0.272 and 0.298 and 0.36 and 0.344 and 0.309
- MTT assay reading, Average (A549; A549, 0.1 μM): 0.6833
- MTT assay reading, individual replicate (A549; A549, 0.1 μM): 0.693 and 0.467 and 0.636 and 0.687 and 0.753 and 0.796 and 0.751
- MTT assay reading, Average (A549; A549, 0.5 μM): 0.5794
- MTT assay reading, individual replicate (A549; A549, 0.5 μM): 0.542 and 0.837 and 0.514 and 0.534 and 0.588 and 0.579 and 0.462
- MTT assay reading, Average (A549; A549, 1 μM): 0.6031
- MTT assay reading, individual replicate (A549; A549, 1 μM): 0.783 and 0.583 and 0.67 and 0.758 and 0.515 and 0.477 and 0.436
- % control (H460; H460, 0.01 μM): 0.11%
- MTT assay reading, Average (H460; H460, 0.01 μM): 0.1897
- MTT assay reading, individual replicate (H460; H460, 0.01 μM): 0.037 and 0.62 and 0.096 and 0.098 and 0.122 and 0.16 and 0.195
- % control (H460; H460, 0.1 μM): 0.08%
- MTT assay reading, Average (H460; H460, 0.1 μM): 0.1399
- MTT assay reading, individual replicate (H460; H460, 0.1 μM): 0.139 and 0.105 and 0.129 and 0.16 and 0.133 and 0.147 and 0.166
- % control (H460; H460, 0.5 μM): 0.16%
- MTT assay reading, Average (H460; H460, 0.5 μM): 0.2786
- MTT assay reading, individual replicate (H460; H460, 0.5 μM): 0.297 and 0.26 and 0.302 and 0.283 and 0.291 and 0.282 and 0.235
- % control (H460; H460, 1 μM): 0.17%
- MTT assay reading, Average (H460; H460, 1 μM): 0.2933
- MTT assay reading, individual replicate (H460; H460, 1 μM): 0.276 and 0.322 and 0.282 and 0.298 and 0.311 and 0.29 and 0.274
- inhibiting cell growth in NSCLC cells, ranking among the derivatives (NSCLC cells): most effective
- % control (H358; H358, 0.01 μM): 69%
- MTT assay reading, Average (H358; H358, 0.01 μM): 0.5804
- MTT assay reading, individual replicate (H358; H358, 0.01 μM): 0.414 and 0.525 and 0.579 and 0.603 and 0.68 and 0.612 and 0.65
- % control (H358; H358, 0.1 μM): 29%
- MTT assay reading, Average (H358; H358, 0.1 μM): 0.2433
- MTT assay reading, individual replicate (H358; H358, 0.1 μM): 0.196 and 0.173 and 0.287 and 0.284 and 0.293 and 0.247 and 0.223
- % control (H358; H358, 0.5 μM): 34%
- MTT assay reading, Average (H358; H358, 0.5 μM): 0.2884
- MTT assay reading, individual replicate (H358; H358, 0.5 μM): 0.212 and 0.331 and 0.284 and 0.282 and 0.478 and 0.2 and 0.232
- % control (H358; H358, 1 μM): 36%
- MTT assay reading, Average (H358; H358, 1 μM): 0.3047
- MTT assay reading, individual replicate (H358; H358, 1 μM): 0.283 and 0.248 (2×) and 0.306 and 0.3 and 0.343 and 0.405
- % control (H596; H596, 0.01 μM): 6%
- MTT assay reading, Average (H596; H596, 0.01 μM): 0.0931
- MTT assay reading, individual replicate (H596; H596, 0.01 μM): 0.037 and 0.055 and 0.067 and 0.122 and 0.101 and 0.118
- % control (H596; H596, 0.1 μM): 20%
- MTT assay reading, Average (H596; H596, 0.1 μM): 0.3181
- MTT assay reading, individual replicate (H596; H596, 0.1 μM): 0.287 and 0.3 and 0.326 and 0.366 and 0.289 and 0.321 and 0.338
- % control (H596; H596, 0.5 μM): 23%
- MTT assay reading, Average (H596; H596, 0.5 μM): 0.3653
- MTT assay reading, individual replicate (H596; H596, 0.5 μM): 0.28 and 0.434 and 0.344 and 0.446 and 0.348 and 0.383 and 0.322
- % control (H596; H596, 1 μM): 26%
- MTT assay reading, Average (H596; H596, 1 μM): 0.405
- MTT assay reading, individual replicate (H596; H596, 1 μM): 0.422 and 0.37 and 0.481 and 0.573 and 0.319 and 0.328 and 0.342
